According to ChEMBL document CHEMBL1909046, “DrugMatrix in vitro pharmacology data”:

What was measured:
[1] = target: T1, Cholecystokinin receptor type A (Homo sapiens, UniProt P32238); assay type: cell membranes, Membrane; conditions: 1321-n1; also: in other assays of this panel Not Active means under 50% inhibition at 10 µM
T1 sequence (P32238 whole entry): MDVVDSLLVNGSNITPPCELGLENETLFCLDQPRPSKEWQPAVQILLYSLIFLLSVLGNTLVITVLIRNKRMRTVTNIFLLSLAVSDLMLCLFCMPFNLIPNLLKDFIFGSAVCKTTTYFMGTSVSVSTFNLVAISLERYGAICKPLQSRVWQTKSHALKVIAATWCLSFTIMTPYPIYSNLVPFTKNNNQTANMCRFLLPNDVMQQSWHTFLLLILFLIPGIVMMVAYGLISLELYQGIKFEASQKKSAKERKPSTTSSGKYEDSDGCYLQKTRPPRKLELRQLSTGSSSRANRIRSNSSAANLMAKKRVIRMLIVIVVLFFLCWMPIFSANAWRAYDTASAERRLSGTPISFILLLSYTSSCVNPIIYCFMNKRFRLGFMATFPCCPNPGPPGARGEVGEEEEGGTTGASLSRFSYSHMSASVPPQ

[2] = target: cGMP-specific 3',5'-cyclic phosphodiesterase (Homo sapiens, UniProt O76074); assay: DRUGMATRIX: Phosphodiesterase PDE5 enzyme inhibition (substrate: [3H]cGMP + cGMP); assay type: tissue-based; conditions: platelet; Not Active = under 50% inhibition at 10 µM
Cannabinoid receptor 1 = Cannabinoid receptor 1 (Homo sapiens, UniProt P21554); assay type: cell membranes, Membrane; conditions: chem-1; also: in other assays of this panel Not Active means under 50% inhibition at 10 µM
Cannabinoid receptor 1, sequence (P21554 whole entry): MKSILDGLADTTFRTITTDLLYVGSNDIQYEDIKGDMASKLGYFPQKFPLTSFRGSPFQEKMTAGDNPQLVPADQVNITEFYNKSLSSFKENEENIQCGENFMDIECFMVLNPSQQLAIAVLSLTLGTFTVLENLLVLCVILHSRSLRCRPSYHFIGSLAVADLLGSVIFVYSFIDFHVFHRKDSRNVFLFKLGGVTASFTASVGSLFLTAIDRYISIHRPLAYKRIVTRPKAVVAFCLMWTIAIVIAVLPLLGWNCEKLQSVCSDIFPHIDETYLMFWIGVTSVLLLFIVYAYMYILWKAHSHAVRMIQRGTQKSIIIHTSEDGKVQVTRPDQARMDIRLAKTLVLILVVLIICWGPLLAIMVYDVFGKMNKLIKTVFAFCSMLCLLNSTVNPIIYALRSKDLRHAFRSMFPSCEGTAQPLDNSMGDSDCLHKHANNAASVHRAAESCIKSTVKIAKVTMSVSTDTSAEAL

Histamine H2 receptor = Histamine H2 receptor (Homo sapiens, UniProt P25021); assay type: cell membranes, CHO-K1, Membrane; conditions: cho-k1; also: in other assays of this panel Not Active means under 50% inhibition at 10 µM
Histamine H2 receptor, sequence (P25021 whole entry): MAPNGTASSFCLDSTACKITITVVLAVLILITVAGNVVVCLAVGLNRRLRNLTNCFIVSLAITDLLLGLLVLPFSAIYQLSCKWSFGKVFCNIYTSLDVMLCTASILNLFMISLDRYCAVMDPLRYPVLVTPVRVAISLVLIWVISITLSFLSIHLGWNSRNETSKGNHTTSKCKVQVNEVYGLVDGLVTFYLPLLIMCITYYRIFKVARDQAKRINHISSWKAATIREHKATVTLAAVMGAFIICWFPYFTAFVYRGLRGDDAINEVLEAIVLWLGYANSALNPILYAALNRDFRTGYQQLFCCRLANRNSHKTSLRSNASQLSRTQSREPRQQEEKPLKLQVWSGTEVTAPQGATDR

[3] = target: T2, Vasoactive intestinal polypeptide receptor 1 (Homo sapiens, UniProt P32241); assay type: cell membranes, Membrane; conditions: ht-29; also: in other assays of this panel Not Active means under 50% inhibition at 10 µM
T2 sequence (P32241 whole entry): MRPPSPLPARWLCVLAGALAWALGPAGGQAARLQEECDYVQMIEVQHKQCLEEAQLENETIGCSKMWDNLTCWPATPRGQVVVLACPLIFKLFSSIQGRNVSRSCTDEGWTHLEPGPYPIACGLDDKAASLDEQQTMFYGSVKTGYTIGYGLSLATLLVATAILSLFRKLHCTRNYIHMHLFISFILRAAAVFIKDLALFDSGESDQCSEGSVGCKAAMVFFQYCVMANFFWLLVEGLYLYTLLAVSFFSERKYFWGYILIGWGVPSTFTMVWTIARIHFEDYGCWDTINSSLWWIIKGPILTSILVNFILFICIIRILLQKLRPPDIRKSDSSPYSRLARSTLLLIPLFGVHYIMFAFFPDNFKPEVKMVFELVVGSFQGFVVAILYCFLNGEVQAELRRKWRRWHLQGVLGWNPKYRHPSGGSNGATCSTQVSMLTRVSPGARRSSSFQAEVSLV

[4] = DRUGMATRIX: Nicotinic Acetylcholine radioligand binding (ligand: [125I] Epibatidine); assay type: cell membranes, Membrane; conditions: imr-32; Not Active = under 50% inhibition at 10 µM
[5] = DRUGMATRIX: Phosphodiesterase PDE3 enzyme inhibition (substrate: [3H]cAMP + cAMP); assay type: tissue-based, Homo sapiens; conditions: platelet; Not Active = under 50% inhibition at 10 µM
Cytochrome P450 2E1 = Cytochrome P450 2E1 (Homo sapiens, UniProt P05181); conditions: bti-tn-5b1-4; also: in other assays of this panel Not Active means under 50% inhibition at 10 µM
Cytochrome P450 2E1, sequence (P05181 whole entry): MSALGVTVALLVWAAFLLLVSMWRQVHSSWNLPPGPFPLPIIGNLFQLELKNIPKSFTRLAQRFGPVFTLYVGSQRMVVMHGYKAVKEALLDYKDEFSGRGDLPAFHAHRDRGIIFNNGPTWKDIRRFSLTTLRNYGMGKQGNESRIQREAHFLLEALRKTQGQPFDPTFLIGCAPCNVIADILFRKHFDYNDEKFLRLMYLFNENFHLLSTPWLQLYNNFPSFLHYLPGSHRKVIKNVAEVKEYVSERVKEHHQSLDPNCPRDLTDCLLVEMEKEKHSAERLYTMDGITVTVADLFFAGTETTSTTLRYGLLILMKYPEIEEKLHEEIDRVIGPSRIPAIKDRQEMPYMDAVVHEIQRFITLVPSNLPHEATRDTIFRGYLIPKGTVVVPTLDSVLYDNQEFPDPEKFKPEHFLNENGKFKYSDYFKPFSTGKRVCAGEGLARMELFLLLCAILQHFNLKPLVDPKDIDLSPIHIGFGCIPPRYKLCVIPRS

[6] = target: Kappa-type opioid receptor (Homo sapiens, UniProt P41145); assay: DRUGMATRIX: Opiate kappa (OP2, KOP) radioligand binding (ligand: [3H] Diprenorphine); assay type: cell membranes, HEK293, Membrane; conditions: hek293; Not Active = under 50% inhibition at 10 µM
Kappa-type opioid receptor, sequence (P41145 whole entry): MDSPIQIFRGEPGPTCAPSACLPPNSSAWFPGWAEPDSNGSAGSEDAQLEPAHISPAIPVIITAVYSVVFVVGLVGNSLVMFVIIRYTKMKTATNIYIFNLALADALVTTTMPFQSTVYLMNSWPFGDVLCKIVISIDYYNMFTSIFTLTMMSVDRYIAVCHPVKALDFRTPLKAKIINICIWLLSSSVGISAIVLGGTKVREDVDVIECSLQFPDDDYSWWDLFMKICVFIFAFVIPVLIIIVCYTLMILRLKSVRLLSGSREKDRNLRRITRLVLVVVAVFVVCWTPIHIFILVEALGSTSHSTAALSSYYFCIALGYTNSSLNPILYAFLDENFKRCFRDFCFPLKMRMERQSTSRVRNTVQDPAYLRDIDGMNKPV

CCOC(=O)C1=C(C)NC(C)=C(C(=O)OC)C1c1cccc(Cl)c1Cl (stereo not drawn) [FELODIPINE]
Not Active: IC50 [1] | IC50 [2] | IC50 (Cannabinoid receptor 1) | IC50 (Histamine H2 receptor) | IC50 [3] | IC50 [4] | Ki [4] | IC50 [5] | Ki [5] | IC50 (Cytochrome P450 2E1) | Ki (Cytochrome P450 2E1) | IC50 [6]

CC(C(=O)O)c1ccc(-c2ccccc2)c(F)c1 (stereo not drawn) [FLURBIPROFEN]
Not Active: IC50 [1] | IC50 [2] | IC50 (Cannabinoid receptor 1) | IC50 (Histamine H2 receptor) | IC50 [3] | IC50 [4] | Ki [4] | IC50 [5] | Ki [5] | IC50 (Cytochrome P450 2E1) | Ki (Cytochrome P450 2E1) | IC50 [6]

NC[C@@H]1O[C@H](O[C@H]2[C@@H](O)[C@H](O[C@@H]3[C@@H](O)[C@H](N)C[C@H](N)[C@H]3O[C@H]3O[C@H](CN)[C@@H](O)[C@H](O)[C@H]3N)O[C@@H]2CO)[C@H](N)[C@@H](O)[C@@H]1O [FRAMYCETIN]
Not Active: IC50 [1] | IC50 [2] | IC50 (Cannabinoid receptor 1) | IC50 (Histamine H2 receptor) | IC50 [3] | IC50 [4] | Ki [4] | IC50 [5] | Ki [5] | IC50 (Cytochrome P450 2E1) | Ki (Cytochrome P450 2E1) | IC50 [6]

C[C@H]([C@](O)(Cn1cncn1)c1ccc(F)cc1F)S(C)(=O)=O [GENACONAZOLE]
Not Active: IC50 [1] | IC50 [2] | IC50 (Cannabinoid receptor 1) | IC50 (Histamine H2 receptor) | IC50 [3] | IC50 [4] | Ki [4] | IC50 [5] | Ki [5] | IC50 (Cytochrome P450 2E1) | Ki (Cytochrome P450 2E1) | IC50 [6]

Cc1c(F)c(N2CCNC(C)C2)cc2c1c(=O)c(C(=O)O)cn2C1CC1 (stereo not drawn) [GREPAFLOXACIN]
Not Active: IC50 [1] | IC50 [2] | IC50 (Cannabinoid receptor 1) | IC50 (Histamine H2 receptor) | IC50 [3] | IC50 [4] | Ki [4] | IC50 [5] | Ki [5] | IC50 (Cytochrome P450 2E1) | Ki (Cytochrome P450 2E1) | IC50 [6]

N=C(N)N/N=C/c1c(Cl)cccc1Cl [GUANABENZ]
Not Active: IC50 [1] | IC50 [2] | IC50 (Cannabinoid receptor 1) | IC50 (Histamine H2 receptor) | IC50 [3] | IC50 [4] | Ki [4] | IC50 [5] | Ki [5] | IC50 (Cytochrome P450 2E1) | Ki (Cytochrome P450 2E1) | IC50 [6]

C[C@]12CCC(=O)C=C1CC[C@@H]1[C@@H]2[C@@H](O)C[C@@]2(C)[C@H]1CC[C@]2(O)C(=O)CO [HYDROCORTISONE]
Not Active: IC50 [1] | IC50 [2] | IC50 (Cannabinoid receptor 1) | IC50 (Histamine H2 receptor) | IC50 [3] | IC50 [4] | Ki [4] | IC50 [5] | Ki [5] | IC50 (Cytochrome P450 2E1) | Ki (Cytochrome P450 2E1) | IC50 [6]

NC[C@H]1O[C@H](O[C@H]2[C@H](O)[C@@H](O[C@H]3O[C@H](CO)[C@@H](O)[C@H](N)[C@H]3O)[C@H](N)C[C@@H]2N)[C@H](O)[C@@H](O)[C@@H]1O [KANAMYCIN]
Not Active: IC50 [1] | IC50 [2] | IC50 (Cannabinoid receptor 1) | IC50 (Histamine H2 receptor) | IC50 [3] | IC50 [4] | Ki [4] | IC50 [5] | Ki [5] | IC50 (Cytochrome P450 2E1) | Ki (Cytochrome P450 2E1) | IC50 [6]

CC[C@H](C)C(=O)O[C@H]1C[C@@H](C)C=C2C=C[C@H](C)[C@H](CC[C@@H]3C[C@@H](O)CC(=O)O3)[C@H]21 [LOVASTATIN]
Not Active: IC50 [1] | IC50 [2] | IC50 (Cannabinoid receptor 1) | IC50 (Histamine H2 receptor) | IC50 [3] | IC50 [4] | Ki [4] | IC50 [5] | Ki [5] | IC50 (Cytochrome P450 2E1) | Ki (Cytochrome P450 2E1) | IC50 [6]

CC(C(=O)O)c1ccc(CC2CCCC2=O)cc1 (stereo not drawn) [LOXOPROFEN]
Not Active: IC50 [1] | IC50 [2] | IC50 (Cannabinoid receptor 1) | IC50 (Histamine H2 receptor) | IC50 [3] | IC50 [4] | Ki [4] | IC50 [5] | Ki [5] | IC50 (Cytochrome P450 2E1) | Ki (Cytochrome P450 2E1) | IC50 [6]

Cc1cccc(Nc2ccccc2C(=O)O)c1C [MEFENAMIC ACID]
Not Active: IC50 [1] | IC50 [2] | IC50 (Cannabinoid receptor 1) | IC50 (Histamine H2 receptor) | IC50 [3] | IC50 [4] | Ki [4] | IC50 [5] | Ki [5] | IC50 (Cytochrome P450 2E1) | Ki (Cytochrome P450 2E1) | IC50 [6]

CC(=O)O[C@]1(C(C)=O)CC[C@H]2[C@@H]3C=C(C)C4=CC(=O)CC[C@]4(C)[C@H]3CC[C@@]21C [MEGESTROL ACETATE]
Not Active: IC50 [1] | IC50 [2] | IC50 (Cannabinoid receptor 1) | IC50 (Histamine H2 receptor) | IC50 [3] | IC50 [4] | Ki [4] | IC50 [5] | Ki [5] | IC50 (Cytochrome P450 2E1) | Ki (Cytochrome P450 2E1) | IC50 [6]

COc1ccccc1OCC(O)COC(N)=O (stereo not drawn) [METHOCARBAMOL]
Not Active: IC50 [1] | IC50 [2] | IC50 (Cannabinoid receptor 1) | IC50 (Histamine H2 receptor) | IC50 [3] | IC50 [4] | Ki [4] | IC50 [5] | Ki [5] | IC50 (Cytochrome P450 2E1) | Ki (Cytochrome P450 2E1) | IC50 [6]

CN(Cc1cnc2nc(N)nc(N)c2n1)c1ccc(C(=O)N[C@@H](CCC(=O)O)C(=O)O)cc1 [METHOTREXATE]
Not Active: IC50 [1] | IC50 [2] | IC50 (Cannabinoid receptor 1) | IC50 (Histamine H2 receptor) | IC50 [3] | IC50 [4] | Ki [4] | IC50 [5] | Ki [5] | IC50 (Cytochrome P450 2E1) | Ki (Cytochrome P450 2E1) | IC50 [6]
